Assays:
[1] = Electrochemical generation of H+ or OH- ions at indium tin oxide electrode surfaces (cyclic voltammetry); assay type: physicochemical
Text: FIG. 7B: Cyclic voltammetric study of the oxidation of Ascorbic acid test in ITO electrodes. Current increase around 0.25V indicates the start of oxidation at ITO electrodes.
Electrode material used: The electrode material was indium tin oxide. This is a semiconducting electrode surface with very large potential window in an aqueous solution.
Oxidation of ascorbic acid at the electrode surfaces produced H^+ ions and changed the electrode surface pH to a more acidic state:
The electrode potential at which it oxidizes was less than 0.5V for Indium tin oxide material vs Ag/AgCl reference electrode (as shown in FIG. 7). This potential was less than the voltages needed for the oxygen evolution reaction in aqueous solution. The ascorbic acid also acted as a sacrificial species to prevent electrochemical degradation of the surface chemistry.
Reduction of benzoquinone (C6H4O2) into Hydroquinone (C6H6O2) can produce OH^− ions at −0.1V: […]

[2] = molecular target: Green Fluorescent Protein (GFP) (Aequorea victoria, UniProt P42212); assay: Effect of benzoquinone substitution on protein (GFP) stability, by fluorescence intensity; assay type: biochemical; conditions: incubation 30 min in phosphate buffered saline, concentration of benzoquinones 0.5 mM
Text: Para-benzoquinones and ortho-benzoquinones (compounds 2, 4, 6, and 9 in FIG. 31) are susceptible to nucleophilic attack at the double bond of the ring (positions 2, 3, 5 and 6 in structure 2 of FIG. 31, positions 3, 4, 5 and 6 in structure 4 of FIG. 31, and positions 2 and 3 in structure 6 of FIG. 31). Introducing substituents at some or all of those positions can mitigate the problem of nucleophilic attack. For example, 1,4-benzoquinone (structure 2 in FIG. 31, where R1, R2, R3 and R4 are H) undergoes Michael addition reaction with amino groups of proteins (Loomis et al., Phytochemistry, 5, 423, (1966) and U.S. Pat. No. 6,753,312 B2). […] Fluorescence intensity of Green Fluorescent Protein (GFP) was measured after incubation with three different benzoquinones in phosphate buffered saline for 30 min (concentration of benzoquinones was 0.5 mM). The difference in fluorescence intensity indicates the varied effect that the different substitutions in benzoquinones have on the stability of GFP. Fluorescence intensity of GFP is indicative of its structural integrity. Losses in fluorescence intensity usually indicate loss of its tertiary structure (protein denaturation) (Yin D. X., Zhu L., Schimke R. T. Anal. Biochem. 1996, 235:195-201).

Compound: O=C1O[C@H]([C@@H](O)CO)C(O)=C1O [ascorbic acid]
- electrode potential at which it oxidizes ([1]; Indium tin oxide material vs Ag/AgCl reference electrode): less than 0.5 V
- start of oxidation (current increase) ([1]; cyclic voltammetric study at ITO electrodes): around 0.25 V

Compound: O=C1C=CC(=O)C=C1 [unsubstituted benzoquinone, 1,4-benzoquinone]
- potential of reduction into Hydroquinone producing OH- ions ([1]; electro-reduction at indium tin oxide electrode): −0.1 V
- loss in GFP fluorescence intensity after incubation [2]: 25%

Source: patent US20180318834A1, “INTEGRATION OF ELECTROCHECMICAL PH MODULATION WITH LAB ON A CHIP TECHNOLOGIES” (Robert Bosch GmbH, priority 2015, published 2018)
